“And” between values parts separate entries of the source, which are not always exact repeats. Equal values may be shown once.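 All cell lines were grown in 96-well plates and treated with compound for 48 hours. GI50: concentration for 50% inhibition of growth. At the TGI there is no net growth.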
How the values were obtained:
Experiment in all cases: NCI tumour cell line growth inhibition, 48 h
[1] = system: BT-549 breast
[2] = system: HOP-92 NSCLC
[3] = system: MCF7 breast
[4] = system: RPMI-8226 leukemia
[5] = system: SF-268 CNS
[6] = system: SF-539 CNS
[7] = system: SK-MEL-28 melanoma
[8] = system: TK-10 renal
[9] = system: U251 CNS
[10] = system: UACC-257 melanoma

SMILES	GI50 [1]	TGI [1]	GI50 [2]	TGI [2]	GI50 [3]	TGI [3]	GI50 [4]	TGI [4]	GI50 [5]	TGI [5]	GI50 [6]	TGI [6]	GI50 [7]	TGI [7]	GI50 [8]	TGI [8]	GI50 [9]	TGI [9]	GI50 [10]	TGI [10]
Oc1ccc(C2c3ccccc3Oc3ccccc32)c2cccnc12	3.15 µM	> 100 µM	1.86 µM	98.7 µM	1.74 µM	> 100 µM	1.7 µM	> 100 µM	1.29 µM	> 100 µM	2.53 µM	25.5 µM	5.12 µM	> 100 µM	1.09 µM	> 100 µM	0.845 µM	> 100 µM	2.76 µM	> 100 µM
CC(=O)O[C@H]1[C@@H]2OC(=O)C(CSc3ccccc3)[C@@H]2C[C@H]2O[C@]2(C)CC/C=C(\C)CCC[C@@H]1C (some centres undefined)	1.98 µM	8.84 µM	1.74 µM	5.43 µM	2.62 µM	12 µM	0.192 µM	10.4 µM	3.51 µM	13.3 µM	9.4 µM	23.3 µM	1.91 µM	3.93 µM	1.65 µM	3.74 µM	3.97 µM	16.5 µM	5.07 µM	19.2 µM
O=C1c2ccccc2-c2c1c1c(O)cccc1n2Cc1ccccn1	26.2 µM	> 100 µM	17.7 µM	> 100 µM	62.4 µM	> 100 µM	19.9 µM	> 100 µM	83.5 µM	> 100 µM	17 µM	44.1 µM	> 100 µM	> 100 µM	28.9 µM	93.2 µM	94.4 µM	> 100 µM	23.1 µM	60.4 µM
Cc1ccc(NS(=O)(=O)c2cccc(C#N)c2)c2[nH]cc(C#N)c12		65.8 µM and 48.4 µM	7.78 µM and 12.8 µM	38.1 µM and 48.2 µM	2.53 µM and 16.8 µM	> 100 µM	18.1 µM and 10.5 µM	76.6 µM and 52.2 µM	35 µM and 30.9 µM	> 100 µM	16.8 µM and 21.5 µM	> 81.2 µM	20.2 µM and 7.55 µM	98.5 µM and > 44.9 µM	24.6 µM and 22.4 µM	> 92.5 µM	17.5 µM and 15.2 µM	> 100 µM	21.9 µM and 22.5 µM	69.1 µM and 84.7 µM
O=C(N/N=C/c1ccc(O)cc1O)c1cccc(Nc2ccnc(C(F)(F)F)c2)c1	1.45 µM	50.8 µM	3.44 µM	> 48.2 µM	2.2 µM	15.5 µM	3.55 µM	14.9 µM	0.811 µM	30.4 µM	0.967 µM	7.74 µM	1.83 µM	16.6 µM	2.98 µM	37.3 µM	0.617 µM	49 µM	3.06 µM	12.3 µM
CN(CC(=O)Nc1nc2ccccc2[nH]1)S(=O)(=O)c1ccc(Cl)cc1	> 100 µM	> 100 µM	> 100 µM	> 100 µM	> 100 µM	> 100 µM	> 100 µM	> 100 µM	43.2 µM	> 100 µM	> 100 µM	> 100 µM	> 100 µM	> 100 µM	> 100 µM	> 100 µM	> 100 µM	> 100 µM	> 100 µM	> 100 µM
CC(CN(C)C)Oc1ccccc1NC1=C(Cl)C(=O)C(Nc2ccccc2OC(C)CN(C)C)=C(Cl)C1=O (centres undefined)	1.62 µM	2.98 µM	0.268 µM	0.807 µM	0.169 µM	0.41 µM	0.372 µM	1.95 µM	1.49 µM	3.06 µM	1.44 µM	2.76 µM	1.5 µM	2.87 µM	0.479 µM	0.974 µM	1.33 µM	2.73 µM	1.16 µM	2.53 µM
O=C1OC(=O)C2CCCC3CCCC1C32 (centres undefined)		> 100 µM		> 100 µM		> 100 µM		> 100 µM		> 100 µM		> 100 µM		> 100 µM		> 100 µM		> 100 µM		> 100 µM

Source: PubChem BioAssay (NCI)
